According to the supplement of paper PMC11061612:

Experiments:
Test in all cases: Bliss excess, mean over the matrix (fraction); higher = more synergy
[1] = system: OV-90 (Ovarian Carcinoma)
In short: (§1)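 After 24 hours at 37°C and 5% CO2 in 1536-well plates, cells in DMEM/F12 or RPMI plus 10% FBS received two-drug dose matrices for 72 hours. Viability came from CellTiter-Glo 2.0 luminescence and was scaled as inhibition, anchored at 0 by vehicle wells and at 1 by blank wells. Combination Emax is taken as the second-highest inhibition in the matrix, and Bliss excess as the observed combination effect less EA + EB − EA·EB, with EA and EB the single-agent effects.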

[2] = system: HSC-3 (Oral Cavity Carcinoma)
In short: as §1

[3] = system: COLO-684 (Endometrial Carcinoma)
In short: as §1

[4] = system: AsPC-1 (Pancreatic Carcinoma)
In short: as §1

[5] = system: OCI-AML5 (Acute Myeloid Leukemia)
In short: as §1

[6] = system: NCI-H1623 (Lung Adenocarcinoma)
In short: as §1

[7] = system: CHL-1 (Melanoma)
In short: as §1

[8] = system: Caov-3 (Ovarian Carcinoma)
In short: as §1

[9] = system: 786-0 (Kidney Carcinoma)
In short: as §1

[10] = system: PC-14 (Lung Adenocarcinoma)
In short: as §1

[11] = system: FLO-1 (Esophageal Adenocarcinoma)
In short: as §1

[12] = system: HuO-3N1 (Osteosarcoma)
In short: as §1

[13] = system: PANC-02-03 (Pancreatic Carcinoma)
In short: as §1

[14] = system: EB-3 (Burkitt's Lymphoma)
In short: as §1

[15] = system: SNU-175 (Colorectal Carcinoma)
In short: as §1

[16] = system: NCI-H1155 (Non-Small Cell Lung Carcinoma)
In short: as §1

[17] = system: AN3-CA (Endometrial Carcinoma)
In short: as §1

[18] = system: NCI-H1755 (Lung Adenocarcinoma)
In short: as §1

[19] = system: KYM-1 (Rhabdomyosarcoma)
In short: as §1

[20] = system: NCI-H196 (Small Cell Lung Carcinoma)
In short: as §1

With `CN(C)CCCOc1ccc(-c2ccc3ncc4c(c3c2)n(C2CCOCC2)c(=O)n4C)cn1` [AZD0156] + C=CCn1c(=O)c2cnc(Nc3ccc(N4CCN(C)CC4)cc3)nc2n1-c1cccc(C(C)(C)O)n1 [AZD1775] (first compound max 1 µM, partner max 1 µM) the Bliss excess [1] was -0.0335, the Bliss excess [2] was -0.0534 and the Bliss excess [3] was -0.0266. It also gave a Bliss excess [4] of -0.0179, a Bliss excess [5] of -0.0359 and a Bliss excess [6] of -0.065. For the same compound, the Bliss excess [7] was -0.0427, the Bliss excess [8] was -0.0434 and the Bliss excess [9] was 0.0005. The Bliss excess [10] was -0.0209, the Bliss excess [11] was 0.0285 and the Bliss excess [12] was -0.0505. The Bliss excess [13] was -0.026, the Bliss excess [14] was -0.0289 and the Bliss excess [15] was 0.0169. For the same compound, the Bliss excess [16] was -0.0213, the Bliss excess [17] was -0.0041 and the Bliss excess [18] was -0.0462. For the same compound, the Bliss excess [19] was -0.0123 and the Bliss excess [20] was -0.0791.

With `CN(C)CCCOc1ccc(-c2ccc3ncc4c(c3c2)n(C2CCOCC2)c(=O)n4C)cn1` [AZD0156] + CCN(CCO)CCCOc1ccc2c(Nc3cc(CC(=O)Nc4cccc(F)c4)[nH]n3)ncnc2c1 [AZD2811] (first compound max 1 µM, 7x7, partner max 1 µM) the Bliss excess [1] was -0.0823, the Bliss excess [2] was -0.0087 and the Bliss excess [3] was -0.0036. It also gave a Bliss excess [4] of -0.0461, a Bliss excess [5] of -0.0185 and a Bliss excess [6] of -0.0321. For the same compound, the Bliss excess [7] was 0.0015, the Bliss excess [8] was -0.0478 and the Bliss excess [9] was -0.0107. For the same compound, the Bliss excess [10] was -0.0042, the Bliss excess [11] was -0.0376 and the Bliss excess [12] was -0.0225. For the same compound, the Bliss excess [13] was -0.0371, the Bliss excess [14] was 0.0304 and the Bliss excess [15] was -0.0101. The Bliss excess [16] was -0.0175, the Bliss excess [17] was -0.0019 and the Bliss excess [18] was -0.0132. It also gave a Bliss excess [19] of -0.0186 and a Bliss excess [20] of -0.05.

Work on `CN(C)CCCOc1ccc(-c2ccc3ncc4c(c3c2)n(C2CCOCC2)c(=O)n4C)cn1` [AZD0156] + C[C@@H]1COCCN1C2=NC(=NC(=C2)C3(CC3)[S@](=N)(=O)C)C4=C5C=CNC5=NC=C4 [AZD6738] (first compound max 1 µM, 7x7, partner max 10 µM) yielded a Bliss excess [1] of -0.0323, a Bliss excess [2] of -0.0032 and a Bliss excess [3] of -0.0496. The Bliss excess [4] was -0.0184, the Bliss excess [5] was -0.0479 and the Bliss excess [6] was -0.0236. It also gave a Bliss excess [7] of 0.0023, a Bliss excess [8] of -0.026 and a Bliss excess [9] of -0.0177. The Bliss excess [10] was 0.0043, the Bliss excess [11] was 0.0005 and the Bliss excess [12] was -0.0046. For the same compound, the Bliss excess [13] was -0.0412, the Bliss excess [14] was -0.0035 and the Bliss excess [15] was 0.0006. It also gave a Bliss excess [16] of -0.0289, a Bliss excess [17] of -0.0226 and a Bliss excess [18] of -0.0249. It also gave a Bliss excess [19] of -0.0102 and a Bliss excess [20] of -0.0414.

Compound `C=CCn1c(=O)c2cnc(Nc3ccc(N4CCN(C)CC4)cc3)nc2n1-c1cccc(C(C)(C)O)n1` [AZD1775] + C[C@@H]1COCCN1C2=NC(=NC(=C2)C3(CC3)[S@](=N)(=O)C)C4=C5C=CNC5=NC=C4 [AZD6738] (first compound max 1 µM, partner max 10 µM) has a Bliss excess [1] of -0.102, a Bliss excess [2] of 0.0038 and a Bliss excess [3] of 0.0245. The Bliss excess [4] was -0.0571, the Bliss excess [5] was 0.005 and the Bliss excess [6] was 0.0057. The Bliss excess [7] was -0.0012, the Bliss excess [8] was -0.025 and the Bliss excess [9] was 0.109. For the same compound, the Bliss excess [10] was -0.005, the Bliss excess [11] was -0.0531 and the Bliss excess [12] was 0.0162. It also gave a Bliss excess [13] of -0.0701, a Bliss excess [14] of 0.0002 and a Bliss excess [15] of 0.039. It also gave a Bliss excess [16] of 0.0817, a Bliss excess [17] of -0.0159 and a Bliss excess [18] of -0.0276. For the same compound, the Bliss excess [19] was 0.0587 and the Bliss excess [20] was -0.0093.

`C=CCn1c(=O)c2cnc(Nc3ccc(N4CCN(C)CC4)cc3)nc2n1-c1cccc(C(C)(C)O)n1` [AZD1775] + O=C(c1cc(Cc2n[nH]c(=O)c3ccccc23)ccc1F)N1CCN(C(=O)C2CC2)CC1 [Olaparib] (first compound max 1 µM, partner max 10 µM) gave a Bliss excess [1] of -0.0424, a Bliss excess [2] of 0.0013 and a Bliss excess [3] of -0.12. The Bliss excess [4] was 0.0039, the Bliss excess [5] was -0.0096 and the Bliss excess [6] was -0.0233. The Bliss excess [7] was -0.0491, the Bliss excess [8] was -0.0396 and the Bliss excess [9] was -0.0097. It also gave a Bliss excess [10] of -0.0248, a Bliss excess [11] of -0.0673 and a Bliss excess [12] of -0.0835. For the same compound, the Bliss excess [13] was -0.0513, the Bliss excess [14] was -0.0426 and the Bliss excess [15] was -0.0028. The Bliss excess [16] was 0.0355, the Bliss excess [17] was 0.0003 and the Bliss excess [18] was -0.0291. The Bliss excess [19] was 0.0188 and the Bliss excess [20] was -0.0552.

`CCN(CCO)CCCOc1ccc2c(Nc3cc(CC(=O)Nc4cccc(F)c4)[nH]n3)ncnc2c1` [AZD2811] + C=CCn1c(=O)c2cnc(Nc3ccc(N4CCN(C)CC4)cc3)nc2n1-c1cccc(C(C)(C)O)n1 [AZD1775] (first compound max 1 µM, partner max 1 µM) showed a Bliss excess [1] of 0.021, a Bliss excess [2] of 0.0504 and a Bliss excess [3] of -0.0443. For the same compound, the Bliss excess [4] was -0.0738, the Bliss excess [5] was -0.0295 and the Bliss excess [6] was 0.009. It also gave a Bliss excess [7] of 0.0161, a Bliss excess [8] of -0.0603 and a Bliss excess [9] of -0.0246. For the same compound, the Bliss excess [10] was -0.0026, the Bliss excess [11] was -0.0162 and the Bliss excess [12] was -0.0504. The Bliss excess [13] was -0.0628, the Bliss excess [14] was -0.071 and the Bliss excess [15] was -0.0108. The Bliss excess [16] was 0.0451, the Bliss excess [17] was 0.0276 and the Bliss excess [18] was -0.0428. The Bliss excess [19] was -0.0096 and the Bliss excess [20] was -0.0371.

Compound `CCN(CCO)CCCOc1ccc2c(Nc3cc(CC(=O)Nc4cccc(F)c4)[nH]n3)ncnc2c1` [AZD2811] + C[C@@H]1COCCN1C2=NC(=NC(=C2)C3(CC3)[S@](=N)(=O)C)C4=C5C=CNC5=NC=C4 [AZD6738] (first compound max 1 µM, 7x7, partner max 10 µM) has a Bliss excess [1] of -0.0772, a Bliss excess [2] of -0.0195 and a Bliss excess [3] of -0.0913. It also gave a Bliss excess [4] of -0.0164, a Bliss excess [5] of -0.0299 and a Bliss excess [6] of -0.0271. For the same compound, the Bliss excess [7] was -0.0344, the Bliss excess [8] was -0.0747 and the Bliss excess [9] was -0.0465. For the same compound, the Bliss excess [10] was -0.0492, the Bliss excess [11] was -0.0611 and the Bliss excess [12] was -0.0218. The Bliss excess [13] was -0.101, the Bliss excess [14] was -0.0835 and the Bliss excess [15] was -0.07. The Bliss excess [16] was -0.0099, the Bliss excess [17] was -0.0315 and the Bliss excess [18] was -0.0621. For the same compound, the Bliss excess [19] was -0.0214 and the Bliss excess [20] was -0.0655.
